From paper PMC6151740, “Pharmacokinetics, Tissue Distribution, and Elimination of Three Active Alkaloids in Rats after Oral Administration of the Effective Fraction of Alkaloids from Ramulus Mori, an Innovative Hypoglycemic Agent” (Molecules : A Journal of Synthetic Chemistry and Natural …, 2017)
Several values for one entry are separate records, joined by “and”; a condition that tells them apart may be missing. Identical values can stand only once. Like-named read-outs stand apart in the source and are kept apart here.

Columns and labels:
[1] = Plasma pharmacokinetic study in rats after oral and intravenous administration of SZ–A or purified DNJ; format: in vivo, rat; conditions: for MRT last: read-out: MRT0–t; for MRT inf: read-out: MRT0–∞; for bioavailability: plasma, read-out: F (oral absolute bioavailability)
Method: The oral dosing solutions used for all animal studies were prepared by dissolving in water. Thirty rats weighed 250–270 g after acclimation were randomly divided into six groups of five animals each. For oral administration, rats were treated with SZ–A (40, 200, 1000 mg/kg) or purified DNJ (15 mg/kg) dissolve in water. Blood samples (about 0.25 mL) were collected via the postorbital venous plexus veins under ether anesthesia into heparinized polythene tubes before dosing and at 0.08, 0.17, 0.33, 0.50, 1, 2, 3, 4, 6, 8, 12, 24 and 36 h after drug administration. For intravenous dosing, rats were given SZ–A (4 mg/kg) or DNJ (1.5 mg/kg) dissolved in normal saline solution through the tail vein. Then blood samples were collected at 0.03, 0.08, 0.17, 0.33, 0.67, 1, 2, 4, 6, 8, 12, 24, and 36 h under similar conditions. Considering the physical limit of blood in rats, during the process of the pharmacokinetic experiment, each rat was received 0.25 mL of sterile isotonic saline at each time point after blood sampling for compensation of body fluid loss, and the blood loss was also corrected at a definite degree. Plasma was separated by centrifuging the blood samples at 1660× g for 5 min and stored at −20 °C until LC-MS/MS analysis. Data fitting and pharmacokinetic parameter estimates were carried out using non–compartmental analysis via WinNonlin Software (version 6.1, Pharsight Corporation, Mountain View, CA, USA). F was calculated according to the formula: F (%) = (AUC oral/AUC i.v.) × (dose i.v./dose oral) × 100.
The plasma, feces, urine, and bile samples (100 μL) were added to 1 μL of Tris aqueous solution (2 M), 10 μL of IS working solution (2 μg/mL), and 190 μL methanol–acetonitrile (25:75, v/v). The incubation supernatant samples (300 μL) were mixed with 1 μL Tris aqueous solution (2 M) and 10 μL of IS working solution (2 μg/mL). All mixtures were vortexed for 30 s followed by centrifugation at 18,880× g for 5 min, twice.
Briefly, the LC-MS/MS instrument consisted of a 1260 HPLC system (Agilent, Santa Clara, CA, USA) and API4000 triple quadrupole mass spectrometer (Applied Biosystems Sciex, Toronto, ON, Canada) with an electrospray ionization (ESI) source and Analyst software (version 1.5.2, Applied Biosystems Sciex, Toronto, ON, Canada) for data acquisition and processing. DNJ, FGM, DAB, and IS were separated in a Xbridge amide™ column (3.5 μm, 4.6 mm × 150 mm; Waters, Milford, MA, USA) with a gradient mobile phase of acetonitrile-water (0.1% ammonium hydroxide) at a flow rate of 0.7 mL/min. An ESI source was used in the positive ion mode. The optimized mass spectrometric condition was as follows: ion spray voltage, 5500 V; collision gas, 6 psi; curtain gas, 20 psi; ion source gas 1 (GS1), 45 psi; ion source gas 2 (GS2), 45 psi; temperature, 450 °C. The multiple reaction monitoring (MRM) transitions of DNJ, FGM, DAB, and IS were m/z 164.0→110.1 (declustering potential (DP) 50 V, collision energy (CE) 22 V, collision cell exit potential (CXP) 10 V), 148.0→112.1 (DP 66 V, CE 21 V, CXP 10 V), 134.0→98.0 (DP 60 V, CE 20 V, CXP 10 V) and 208.0→146.1 (DP 50 V, CE 27 V, CXP 10 V), respectively.

[2] = Tissue distribution in rats after oral SZ–A; format: in vivo; conditions: Sprague-Dawley, pancreas, rat, SZ–A 40 mg/kg p.o., 0.25, 0.5 and 2 h, n = 3, read-out: tissue to plasma ratio (T/P) in the pancreas
Method: Three groups of rats (three rats in each group) were administered with a single oral dose of SZ–A at 40 mg/kg. Rats each were sacrificed and various tissues, including liver, kidney, pancreas, stomach, duodenum, jejunum, ileum, cecum, colon, and the content in the gastrointestinal tract were collected at 0.25, 0.5, and 2 h time points. One additional rat was sacrificed predose to provide control tissues for analysis. After removing blood or content and weighing, each sample was individually homogenized with normal saline solution (1:3, w/v for tissue; 1:9, w/v for content) using a tissue homogenizer (Polytron PT1600E, Kinematica, Luzern, Switzerland) and stored at −20 °C until LC-MS/MS analysis.

[3] = Excretion into urine, feces and bile in rats after oral SZ–A; format: in vivo; conditions: rat, SZ–A 40 mg/kg p.o.
Method: Five rats were kept in the metabolic cages with free access to water and food 2 h post dose. Urine was collected before dosing and at 0–4, 4–8, 8–24, 24–36, and 36–48 h, and feces was simultaneously collected before dosing and at 0–24, 24–36, and 36–48 h after oral dosing of SZ–A (40 mg/kg). Feces samples were dried and grinded into powder, then homogenized with normal saline solution (1:9, w/v). Additionally, the bile duct of rats under ether anesthesia were cannulated with a PE-10 tube (Portex Ltd., Kent, UK). Bile was collected before dosing and at 0–1, 1–2, 2–4, 4–6, 6–10, 10–20, 20–24, 24–28, and 28–32 h following oral administration of SZ–A (40 mg/kg). All urine, feces, and bile samples were stored at −20 °C until LC-MS/MS analysis.

[4] = Sprague-Dawley, iv, rat plasma, SZ–A 4 mg/kg i.v., n = 5
[5] = Sprague-Dawley, po, rat plasma, SZ–A 40 mg/kg p.o., n = 5
[6] = Sprague-Dawley, po, rat plasma, SZ–A 200 mg/kg p.o., n = 5
[7] = Sprague-Dawley, po, rat plasma, SZ–A 1000 mg/kg p.o., n = 5
[8] = rat plasma, SZ–A 40 mg/kg p.o., n = 5
[9] = rat plasma, SZ–A 200 mg/kg p.o., n = 5
[10] = rat plasma, SZ–A 1000 mg/kg p.o., n = 5

OC[C@H]1NCC[C@@H](O)[C@@H]1O [FGM, fagomine]
AUC(0-inf) [1, 4]: 284 ± 36.7 ng·h/mL
AUC(0-t) [1, 4]: 278 ± 36.8 ng·h/mL
Cmax [1, 4]: 1240 ± 304 ng/mL
Tmax [1, 4]: 0.033 h
half-life [1, 4]: 0.23 ± 0.03 h
clearance ([1]; Sprague-Dawley, iv, rat plasma, SZ–A 4 mg/kg i.v., n = 5, read-out: CLz (converted)): 15.4 mL/min/kg
MRT last [1, 4]: 0.26 ± 0.06 h
MRT inf [1, 4]: 0.3 ± 0.06 h
Vd ([1]; Sprague-Dawley, iv, rat plasma, SZ–A 4 mg/kg i.v., n = 5, read-out: Vd): 0.308 ± 0.061 L/kg
bioavailability ([1]; Sprague-Dawley, po, rat, SZ–A 40 mg/kg p.o. vs SZ–A 4 mg/kg i.v.): 77.5%
bioavailability ([1]; Sprague-Dawley, po, rat, SZ–A 200 mg/kg p.o. vs SZ–A 4 mg/kg i.v.): 38.5%
bioavailability ([1]; Sprague-Dawley, po, rat, SZ–A 1000 mg/kg p.o. vs SZ–A 4 mg/kg i.v.): 29.9%
AUC(0-inf) [1, 5]: 2170 ± 770 ng·h/mL
AUC(0-t) [1, 5]: 2160 ± 778 ng·h/mL
Cmax [1, 5]: 1490 ± 756 ng/mL
Tmax [1, 5]: 0.67 ± 0.29 h
half-life [1, 5]: 0.93 ± 0.29 h
MRT last [1, 5]: 1.41 ± 0.27 h
MRT inf [1, 5]: 1.48 ± 0.34 h
AUC(0-inf) [1, 6]: 5400 ± 1470 ng·h/mL
AUC(0-t) [1, 6]: 5360 ± 1490 ng·h/mL
Cmax [1, 6]: 2250 ± 1060 ng/mL
Tmax [1, 6]: 0.57 ± 0.09 h
half-life [1, 6]: 1.44 ± 0.16 h
MRT last [1, 6]: 2.66 ± 0.52 h
MRT inf [1, 6]: 2.78 ± 0.54 h
AUC(0-inf) [1, 7]: 21800 ng·h/mL
AUC(0-t) [1, 7]: 20800 ng·h/mL
Cmax [1, 7]: 4390 ± 2360 ng/mL
Tmax [1, 7]: 1.3 ± 0.67 h
half-life [1, 7]: 2.73 ± 1.16 h
MRT last [1, 7]: 5.44 ± 1.77 h
MRT inf [1, 7]: 6.15 ± 2.11 h
CLz [1, 8]: 21.965 ± 9.748 mL/min/kg
Vd [1, 8]: 1.894 ± 1.3578 L/kg
CLz [1, 9]: 42.625 ± 13.11 mL/min/kg
Vd [1, 9]: 5.332 ± 1.8559 L/kg
CLz [1, 10]: 56.43 ± 21.033 mL/min/kg
Vd [1, 10]: 14,243.4 ± 9987.6 mL/kg
time to reach maximum plasma concentration (Cmax) ([1]; rat, after oral administration of SZ–A (40, 200, 1000 mg/kg), upper bound over doses): ≤ 1.30 h
Kp [2]: 0.18 to 1.13
dose excreted ([3]; bile, po, within 32 h, read-out: recovery in bile (% of dose)): 0.5%
total excretive amount (urine and feces) relative to the oral dose [3]: about two-fold
cumulative excretion into urine (% of dose) ([3]; over a 24 h period, n = 5): 65.36%
cumulative excretion into feces (% of dose) ([3]; over a 24 h period, n = 5, 40 mg/kg): 131.4% and 131.41%
